Reference: BigSolDB 2.1

Settings: in tetrachloromethane

C[C@@H]1CC[C@@]2(OC1)O[C@H]1C[C@H]3[C@@H]4CC=C5C[C@@H](O)CC[C@]5(C)[C@H]4CC[C@]3(C)[C@H]1[C@@H]2C
solubility (mole fraction) (291.95 K): 0.00286
solubility (mole fraction) (297.45 K): 0.00334
solubility (mole fraction) (299.85 K): 0.00381
solubility (mole fraction) (302.75 K): 0.00429
solubility (mole fraction) (306.95 K): 0.00487
solubility (mole fraction) (308.95 K): 0.00536
solubility (mole fraction) (311.35 K): 0.00578
solubility (mole fraction) (313.65 K): 0.0063
solubility (mole fraction) (316.15 K): 0.00676
solubility (mole fraction) (317.95 K): 0.00718
solubility (mole fraction) (318.95 K): 0.00763
solubility (mole fraction) (320.55 K): 0.00804
solubility (mole fraction) (322.35 K): 0.00857
solubility (mole fraction) (323.65 K): 0.00905
solubility (mole fraction) (325.15 K): 0.0095
solubility (mole fraction) (326.35 K): 0.0099
solubility (mole fraction) (327.85 K): 0.0105
solubility (mole fraction) (328.95 K): 0.0109
